Assay results from patent US10392368B2, “Pyrazolo and triazolo bicyclic compounds as JAK kinase inhibitors” (THERAVANCE BIOPHARMA R&D IP, LLC, priority 2017, dated 2019).

Experiments:
JAK1 = target: T1, JAK1 (Homo sapiens, UniProt P23458); experiment: Biochemical JAK1 kinase assay (LanthaScreen); conditions: for Ki: read-out: JAK 1 (pKi) (converted)
T1 construct: GST; purchased Life Technologies
How it was run: (§1)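 TR-FRET readout (520/495 nm) using Tb-labelled pTyr701 antibody after EDTA stop, following 1 h ATP-started phosphorylation of GFP-STAT1 by recombinant GST-JAK. Compounds preincubated 1 h with enzyme and substrate; pIC50 from 4-parameter fit, Cheng-Prusoff gives pKi.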

JAK3 = target: T2, JAK3 (Homo sapiens, UniProt P52333); experiment: Biochemical JAK3 kinase assay (LanthaScreen); set-up: GST; purchased Life Technologies; conditions: for JAK3 (pKi)-JAK1 (pKi): selectivity JAK3 over JAK1, difference of pKi; for Ki: read-out: JAK 3 (pKi) (converted)
T2 sequence (P52333 1-1124): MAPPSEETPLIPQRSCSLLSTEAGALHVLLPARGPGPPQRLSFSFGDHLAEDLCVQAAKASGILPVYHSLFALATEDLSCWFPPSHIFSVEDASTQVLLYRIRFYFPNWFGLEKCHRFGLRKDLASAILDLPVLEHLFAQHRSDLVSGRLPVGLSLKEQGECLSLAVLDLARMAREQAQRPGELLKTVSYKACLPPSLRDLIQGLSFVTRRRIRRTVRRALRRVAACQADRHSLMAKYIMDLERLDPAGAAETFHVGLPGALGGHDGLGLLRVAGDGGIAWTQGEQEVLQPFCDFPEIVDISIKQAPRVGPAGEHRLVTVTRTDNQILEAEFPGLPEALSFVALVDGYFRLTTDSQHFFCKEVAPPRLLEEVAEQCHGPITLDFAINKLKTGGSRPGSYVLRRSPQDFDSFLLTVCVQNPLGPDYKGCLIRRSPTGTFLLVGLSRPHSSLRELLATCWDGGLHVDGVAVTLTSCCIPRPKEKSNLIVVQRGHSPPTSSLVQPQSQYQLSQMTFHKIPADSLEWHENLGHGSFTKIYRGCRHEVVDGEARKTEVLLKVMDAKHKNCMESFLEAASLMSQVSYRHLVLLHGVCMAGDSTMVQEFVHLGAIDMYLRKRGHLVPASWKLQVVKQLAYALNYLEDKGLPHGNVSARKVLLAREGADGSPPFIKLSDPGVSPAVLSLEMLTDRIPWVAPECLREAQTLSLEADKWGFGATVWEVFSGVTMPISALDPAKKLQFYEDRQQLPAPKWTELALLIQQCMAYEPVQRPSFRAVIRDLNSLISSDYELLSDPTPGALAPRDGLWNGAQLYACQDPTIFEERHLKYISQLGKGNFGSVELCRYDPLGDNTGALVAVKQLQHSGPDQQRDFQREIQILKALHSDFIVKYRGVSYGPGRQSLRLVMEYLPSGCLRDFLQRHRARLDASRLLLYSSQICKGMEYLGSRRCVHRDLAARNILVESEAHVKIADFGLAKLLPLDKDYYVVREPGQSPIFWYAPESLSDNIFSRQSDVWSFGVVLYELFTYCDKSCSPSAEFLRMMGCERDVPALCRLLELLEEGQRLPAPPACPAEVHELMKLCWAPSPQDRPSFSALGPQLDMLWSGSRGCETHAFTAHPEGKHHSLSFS
How it was run: as §1

[1] = test system: IL-2 stimulated pSTAT5 in Tall-1 T cells; experiment: Cellular JAK3 potency assay: inhibition of IL-2 stimulated pSTAT5 in Tall-1 T cells; format: cell-based, human; conditions: for IC50: Homo sapiens, TALL-1, IL-2 stimulated pSTAT5, Tall-1 T cells, read-out: Tall-1 (pIC50) (converted)
How it was run: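 Inhibition of IL-2-induced pSTAT5 was quantified by AlphaLisa in Tall-1 cell lysates. Compound exposure lasted 1 h before 30 min stimulation with 300 ng/ml IL-2 final.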

T1 sequence (P23458 whole entry): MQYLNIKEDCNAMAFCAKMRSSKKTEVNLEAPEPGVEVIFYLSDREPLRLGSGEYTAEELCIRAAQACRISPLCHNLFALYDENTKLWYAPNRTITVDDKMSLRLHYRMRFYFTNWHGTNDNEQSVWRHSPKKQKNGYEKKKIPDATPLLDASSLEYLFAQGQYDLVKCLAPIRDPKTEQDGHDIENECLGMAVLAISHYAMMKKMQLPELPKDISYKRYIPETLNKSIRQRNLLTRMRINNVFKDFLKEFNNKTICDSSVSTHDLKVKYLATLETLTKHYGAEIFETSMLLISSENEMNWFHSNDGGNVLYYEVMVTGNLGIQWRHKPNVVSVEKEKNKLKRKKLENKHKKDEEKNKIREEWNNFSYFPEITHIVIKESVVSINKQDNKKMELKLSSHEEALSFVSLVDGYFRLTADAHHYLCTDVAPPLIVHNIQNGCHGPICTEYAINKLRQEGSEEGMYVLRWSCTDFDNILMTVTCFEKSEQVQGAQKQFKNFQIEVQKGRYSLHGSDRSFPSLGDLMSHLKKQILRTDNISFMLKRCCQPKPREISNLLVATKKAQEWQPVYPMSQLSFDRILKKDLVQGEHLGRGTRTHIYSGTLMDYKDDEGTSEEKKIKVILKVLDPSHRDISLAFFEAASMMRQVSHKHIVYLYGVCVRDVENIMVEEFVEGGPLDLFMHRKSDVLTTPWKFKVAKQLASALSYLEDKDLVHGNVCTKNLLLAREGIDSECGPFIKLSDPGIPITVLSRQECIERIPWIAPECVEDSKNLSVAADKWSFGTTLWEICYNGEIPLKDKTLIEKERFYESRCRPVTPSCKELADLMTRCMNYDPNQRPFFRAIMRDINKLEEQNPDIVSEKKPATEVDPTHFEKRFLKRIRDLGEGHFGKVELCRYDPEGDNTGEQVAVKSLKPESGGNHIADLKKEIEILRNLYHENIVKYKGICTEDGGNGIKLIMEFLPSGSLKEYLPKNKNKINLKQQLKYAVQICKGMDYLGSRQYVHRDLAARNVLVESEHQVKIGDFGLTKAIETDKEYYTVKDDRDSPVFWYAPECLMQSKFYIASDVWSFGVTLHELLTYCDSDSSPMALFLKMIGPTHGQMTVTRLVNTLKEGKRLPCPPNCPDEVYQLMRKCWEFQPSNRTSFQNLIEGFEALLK

## C=CC(=O)N1CC[C@@H](Sc2cc(-c3ccc(O)cc3)cc3[nH]ncc23)C1 [Compound 12-2]
JAK1
  JAK 1 (pKi): E (a pKi value of 7 or below (Ki of 100 nM or above))
JAK3
  JAK 3 (pKi): B (a pKi value between 9 and 10 (Ki between 1 nM and 0.1 nM))
  JAK3 (pKi)-JAK1 (pKi): B (a value of 2.3 to 3)
[1]; IL-2 stimulated pSTAT5, Tall-1 T cells
  Tall-1 (pIC50): B (a pIC50 value between 6.7 (included) and 7.5 (IC50 between 200 nM and 32 nM))

## CN(C)C/C=C/C(=O)N1CC[C@@H](Sc2cc(-c3ccc(O)cc3)cc3[nH]ncc23)C1 [Compound 12-3]
JAK1
  Ki: 10 to 100 nM
JAK3
  Ki: 0.1 to 1 nM
  JAK3 (pKi)-JAK1 (pKi): B (a value of 2.3 to 3)
[1]
  IC50: 200 to 1000 nM

## CN(C)C/C=C/C(=O)N1CCC(Sc2cc(-c3ccc(O)cc3)cc3[nH]ncc23)CC1 [Compound 12-5]
JAK1
  Ki: > 100 nM
JAK3
  Ki: 0.1 to 1 nM
  JAK3 (pKi)-JAK1 (pKi): B (a value of 2.3 to 3)
[1]
  IC50: 31.6 to 200 nM

## C=CC(=O)N1CCC[C@H](Sc2cc(-c3ccc(O)cc3)cc3[nH]ncc23)C1 [Compound 12-6]
JAK1
  Ki: 10 to 100 nM
JAK3
  Ki: 0.1 to 1 nM
  JAK3 (pKi)-JAK1 (pKi): B (a value of 2.3 to 3)
[1]
  IC50: 31.6 to 200 nM

## CN(C)C/C=C/C(=O)N1CCC[C@H](Sc2cc(-c3ccc(O)cc3)cc3[nH]ncc23)C1 [Compound 12-7]
JAK1
  Ki: 10 to 100 nM
JAK3
  Ki: 0.1 to 1 nM
  JAK3 (pKi)-JAK1 (pKi): C (a value of 1.8 to 2.3)
[1]
  IC50: 200 to 1000 nM

## C=CC(=O)N1CCC(S(=O)(=O)c2cc(-c3ccc(O)cc3)cc3[nH]ncc23)CC1 [Compound 12-8]
JAK1
  Ki: > 100 nM
JAK3
  Ki: 0.1 to 1 nM
  JAK3 (pKi)-JAK1 (pKi): A (a value of 3 or above)
[1]
  IC50: 200 to 1000 nM

## C=CC(=O)N1CCC[C@H](S(=O)(=O)c2cc(-c3ccc(O)cc3)cc3[nH]ncc23)C1 [Compound 12-9]
JAK1
  Ki: > 100 nM
JAK3
  Ki: 0.1 to 1 nM
  JAK3 (pKi)-JAK1 (pKi): A (a value of 3 or above)
[1]
  IC50: 200 to 1000 nM

## CN(C)C/C=C/C(=O)N1CCC(Cc2cc(-c3ccc(O)cc3)cc3[nH]ncc23)CC1 [Compound 12-14]
JAK1
  Ki: > 100 nM
JAK3
  Ki: 0.1 to 1 nM
  JAK3 (pKi)-JAK1 (pKi): C (a value of 1.8 to 2.3)
[1]
  IC50: 200 to 1000 nM

## C=CC(=O)N1CC[C@H](Nc2cc(-c3ccc(O)cc3)cc3[nH]ncc23)C[C@@H]1C [Compound 12-15]
JAK1
  Ki: > 100 nM
JAK3
  Ki: 0.1 to 1 nM
  JAK3 (pKi)-JAK1 (pKi): B (a value of 2.3 to 3)
[1]
  IC50: 31.6 to 200 nM

## C=CC(=O)N1CC[C@@H](Nc2cc(-c3ccc(O)cc3)cc3[nH]ncc23)C1 [Compound 12-18]
JAK1
  Ki: 10 to 100 nM
JAK3
  Ki: < 0.1 nM
  JAK3 (pKi)-JAK1 (pKi): B (a value of 2.3 to 3)
[1]
  IC50: 31.6 to 200 nM

## CN(C)C/C=C/C(=O)N1CC[C@@H](COc2cc(-c3ccc(O)cc3)cc3[nH]ncc23)C1 [Compound 12-19]
JAK1
  Ki: > 100 nM
JAK3
  Ki: < 0.1 nM
  JAK3 (pKi)-JAK1 (pKi): A (a value of 3 or above)
[1]
  IC50: 200 to 1000 nM

## C=CC(=O)N1CC2(CC(Oc3cc(-c4ccc(O)cc4)cc4[nH]ncc34)C2)C1 [Compound 12-21]
JAK1
  Ki: > 100 nM
JAK3
  Ki: 0.1 to 1 nM
  JAK3 (pKi)-JAK1 (pKi): B (a value of 2.3 to 3)
[1]
  IC50: < 31.6 nM
